Reference: ChEMBL document CHEMBL5614375, “PepExplainer: An explainable deep learning model for selection-based macrocyclic peptide bioactivity prediction and optimization” (Eur J Med Chem, 2024)
Bridge positions count the residues as written; N and C are the ends. Peptide text beside a SMILES is read from it.

Target: T1, IL17-RE-IL-17C (Homo sapiens, UniProt Q8NFR9+Q9P0M4)
T1 sequence (Q9P0M4 whole entry): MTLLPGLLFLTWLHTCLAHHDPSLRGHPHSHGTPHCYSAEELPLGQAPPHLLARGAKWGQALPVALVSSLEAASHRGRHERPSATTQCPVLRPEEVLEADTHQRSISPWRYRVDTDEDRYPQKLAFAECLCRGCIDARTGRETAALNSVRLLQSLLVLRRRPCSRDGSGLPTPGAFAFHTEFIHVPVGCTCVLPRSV
T1 sequence (Q8NFR9 whole entry): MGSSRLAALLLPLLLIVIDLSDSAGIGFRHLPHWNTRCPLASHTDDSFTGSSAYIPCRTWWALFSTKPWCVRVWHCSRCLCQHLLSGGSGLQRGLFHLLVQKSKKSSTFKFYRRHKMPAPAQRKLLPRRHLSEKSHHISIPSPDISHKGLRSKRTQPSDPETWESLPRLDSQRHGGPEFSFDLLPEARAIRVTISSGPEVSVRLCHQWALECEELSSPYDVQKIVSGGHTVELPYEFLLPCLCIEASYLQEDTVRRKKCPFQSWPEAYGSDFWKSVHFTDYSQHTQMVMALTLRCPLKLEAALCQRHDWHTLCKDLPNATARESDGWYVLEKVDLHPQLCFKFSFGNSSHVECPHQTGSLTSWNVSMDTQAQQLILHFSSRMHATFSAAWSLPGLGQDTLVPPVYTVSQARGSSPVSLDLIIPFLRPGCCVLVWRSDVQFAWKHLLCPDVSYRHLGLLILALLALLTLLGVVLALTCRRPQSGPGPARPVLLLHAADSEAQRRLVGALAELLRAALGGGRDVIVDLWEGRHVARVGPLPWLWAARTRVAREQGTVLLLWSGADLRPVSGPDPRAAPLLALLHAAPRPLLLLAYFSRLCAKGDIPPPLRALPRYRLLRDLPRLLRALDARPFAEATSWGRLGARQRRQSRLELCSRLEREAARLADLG
Assay: Inhibition of interleukin-17RE/biotinylated IL-17C protein-protein interaction (unknown origin) incubated for 1 hrs by competitive ELISA
Assay type: protein-complex assay

Compound | IC50 [nM]
CC(C)C[C@@H]1NC(=O)[C@H](C)NC(=O)[C@H](CCCNC(=N)N)NC(=O)[C@H](Cc2ccc(O)cc2)NC(=O)[C@H](Cc2ccc(O)cc2)NC(=O)[C@H](Cc2c[nH]cn2)NC(=O)[C@H](Cc2c[nH]cn2)NC(=O)[C@H](Cc2ccc(O)cc2)NC(=O)CSC[C@@H](C(=O)NCC(N)=O)NC(=O)CNC(=O)[C@H](CC(C)C)NC(=O)[C@H](CCC(=O)O)NC(=O)CNC(=O)[C@H](Cc2ccc(O)cc2)NC1=O ({CH2CO}-YHHYYRALYGELGCG-NH2; thioether N-14) | 254
CC[C@@H](C)[C@@H]1NC(=O)[C@H](CCCNC(=N)N)NC(=O)[C@H](Cc2ccc(O)cc2)NC(=O)[C@H](Cc2ccc(O)cc2)NC(=O)[C@H](CCC(N)=O)NC(=O)[C@H](Cc2c[nH]cn2)NC(=O)[C@H](Cc2ccc(O)cc2)NC(=O)CSC[C@@H](C(=O)NCC(N)=O)NC(=O)CNC(=O)[C@H](CC(C)C)NC(=O)[C@H](CC(N)=O)NC(=O)CNC(=O)[C@H](Cc2ccc(O)cc2)NC(=O)[C@H](CC(C)C)NC1=O | 5.6
CC[C@H](C)[C@@H]1NC(=O)[C@H](CCCNC(=N)N)NC(=O)[C@H](Cc2ccc(O)cc2)NC(=O)[C@H](Cc2ccc(O)cc2)NC(=O)[C@H](CCC(N)=O)NC(=O)[C@H](Cc2c[nH]cn2)NC(=O)[C@H](Cc2ccc(O)cc2)NC(=O)CSC[C@@H](C(=O)NCC(N)=O)NC(=O)[C@H](C(C)C)NC(=O)[C@H](CC(C)C)NC(=O)[C@H](CCC(=O)O)NC(=O)CNC(=O)[C@H](Cc2ccc(O)cc2)NC(=O)[C@H](CC(C)C)NC1=O ({CH2CO}-YHQYYRILYGELVCG-NH2; thioether N-14) | > 30000

More lines, now with the values ahead:

IC50 [nM] | Compound
86 | CC[C@H](C)[C@@H]1NC(=O)[C@H](CCCNC(=N)N)NC(=O)[C@H](Cc2ccc(O)cc2)NC(=O)[C@H](Cc2ccc(O)cc2)NC(=O)[C@H](CCC(=O)O)NC(=O)[C@H](Cc2c[nH]cn2)NC(=O)[C@H](Cc2ccc(O)cc2)NC(=O)CSC[C@@H](C(=O)NCC(N)=O)NC(=O)CNC(=O)[C@H](CC(C)C)NC(=O)[C@H](CCC(=O)O)NC(=O)CNC(=O)[C@H](Cc2ccc(O)cc2)NC(=O)[C@H](CC(C)C)NC1=O ({CH2CO}-YHEYYRILYGELGCG-NH2; thioether N-14)
47 | CC[C@H](C)[C@@H]1NC(=O)[C@H](CCCNC(=N)N)NC(=O)[C@H](Cc2ccc(O)cc2)NC(=O)[C@H](Cc2ccc(O)cc2)NC(=O)[C@H](Cc2c[nH]cn2)NC(=O)[C@H](Cc2c[nH]cn2)NC(=O)[C@H](Cc2ccc(O)cc2)NC(=O)CSC[C@@H](C(=O)NCC(N)=O)NC(=O)CNC(=O)[C@H](CC(C)C)NC(=O)[C@H](CC(N)=O)NC(=O)CNC(=O)[C@H](Cc2ccc(O)cc2)NC(=O)[C@H](CC(C)C)NC1=O ({CH2CO}-YHHYYRILYGNLGCG-NH2; thioether N-14)
1.4 | CC[C@H](C)[C@@H]1NC(=O)[C@H](Cc2c[nH]cn2)NC(=O)[C@H](Cc2ccc(O)cc2)NC(=O)CSC[C@@H](C(=O)NCC(N)=O)NC(=O)CNC(=O)[C@H](CC(C)C)NC(=O)[C@H](CC(N)=O)NC(=O)CNC(=O)[C@H](Cc2ccc(O)cc2)NC(=O)[C@H](CC(C)C)NC(=O)[C@H](CO)NC(=O)[C@H](C)NC(=O)[C@H](Cc2ccc(O)cc2)NC(=O)[C@H](Cc2ccc(O)cc2)NC1=O ({CH2CO}-YHIYYASLYGNLGCG-NH2; thioether N-14)
15 | CC[C@H](C)[C@@H]1NC(=O)[C@H](CCCNC(=N)N)NC(=O)[C@H](Cc2ccc(O)cc2)NC(=O)[C@H](Cc2ccc(O)cc2)NC(=O)[C@H](CCC(N)=O)NC(=O)[C@H](Cc2c[nH]cn2)NC(=O)[C@H](Cc2ccc(O)cc2)NC(=O)CSC[C@@H](C(=O)NCC(N)=O)NC(=O)CNC(=O)[C@H](CC(C)C)NC(=O)[C@H](CCC(=O)O)NC(=O)CNC(=O)[C@H](Cc2ccc(O)cc2)NC(=O)[C@H](CC(C)C)NC1=O ({CH2CO}-YHQYYRILYGELGCG-NH2; thioether N-14)
